Source: patent US9320766B2, “Protective effects and application of a lactobacillus plantarum on the alleviation of lead toxicity” (priority 2012, dated 2016)
Marks after values point to notes of the source that are not given here.

What was measured:
lead-exposed mice [1] = experiment: Oxidative damage caused by lead exposure (liver GSH and MDA); format: in vivo; details: mice fed 1 g/L lead acetate solution, daily treatment
Description: 40 healthy male Kunming mice of 20-25 g are taken and randomly divided into four groups: namely negative control group, lead acetate model group, Lactobacillus plantarum CCFM8661 treatment group and calcium disodium edetate (EDTANa2Ca) treatment group as positive control. The mice of negative control group are fed with ordinary drinking water and the mice of remaining three groups are fed with 1 g/L lead acetate solution to obtain the lead exposure models. The mice of Lactobacillus plantarum CCFM8661 treatment group are daily fed with the 2.0×10^9 cfu/mL skim milk suspension prepared in Example 3 of this Specification, and the mice of positive control treatment group are intraperitoneally injected with 5 g/L disodium edetate calcium agent every day. The blood is taken at the end of the experiment, and the livers are taken out after these mice are sacrificed. These organs are processed with the Ellmam method (Ellmam, G. C. Tissue sulfhydryl groups. Archives of biochemistry and biophysics 82(1): 70-77.) and the malondialdehyde (MDA) kit of Nanjing Jiancheng Bioengineering Institute to determine the glutathione (GSH) and MDA levels.

lead-exposed mice [2] = experiment: Lead levels of lead-exposed mice; format: in vivo; details: mice fed 1 g/L lead acetate solution; compared with lead model and negative control groups, FIG. 3
Description: 40 healthy male Kunming mice of 20-25 g are randomly divided into four groups: namely negative control group, lead acetate model group, Lactobacillus plantarum CCFM8661 treatment group, and calcium disodium edetate treatment group as positive control. The mice of negative control group are fed with ordinary drinking water and the mice of remaining three groups are fed with 1 g/L lead acetate solution to obtain the lead exposure models. The mice of Lactobacillus plantarum CCFM8661 treatment group are daily fed with the 2.0×10^9 cfu/mL skim milk suspension prepared in Example 3 of Specifications, and the mice of positive control treatment group are intraperitoneally injected with 5 g/L disodium edetate calcium agent every day. The blood of mice is collected at the end of the experiment, and the liver, stomach and kidney are collected after these mice are sacrificed.
40 healthy male Kunming mice of 20-25 g are taken and randomly divided into four groups: namely negative control group, lead acetate model group, Lactobacillus plantarum CCFM8661 treatment group and calcium disodium edetate treatment group as positive control. […] These organs are processed in accordance with above digestion processes, and then the lead levels can be determined with above atomic absorption spectrophotometry of Example 2.

Compound: O=C([O-])CN(CCN(CC(=O)[O-])CC(=O)[O-])CC(=O)[O-].[Ca+2].[Na+].[Na+] [EDTANa2Ca, calcium disodium edetate]
- GSH (liver) (lead-exposed mice [1]): 2.15 ± 0.50^c mg/g protein
- MDA (liver) (lead-exposed mice [1]): 0.15 ± 0.03^c nmol/mg protein
- lead levels of mice blood, liver, stomach and kidney (lead-exposed mice [2]): higher than that of the negative control group, but lower than that of the lead model control group
